Patent publication US5246830A, “Enzymatic process for the determination of β-lactam antibiotics” (Ucb Bioproducts, S.A., priority 1990, dated 1993)

Legend:
[1] = molecular target: T1, enzyme R39 (soluble D-alanyl-D-alanine carboxypeptidase produced by Actinomadura R39) (Actinomadura sp. R39, UniProt P39045); assay: Enzymatic determination of penicillin G in milk with [(N-phenylacetyl-D-alanyl)thio]-acetic acid as substrate (Example 4); type: biochemical; details: Example 4, Table IV
T1 construct: added to milk or serum samples
T1 sequence (P39045 50-515): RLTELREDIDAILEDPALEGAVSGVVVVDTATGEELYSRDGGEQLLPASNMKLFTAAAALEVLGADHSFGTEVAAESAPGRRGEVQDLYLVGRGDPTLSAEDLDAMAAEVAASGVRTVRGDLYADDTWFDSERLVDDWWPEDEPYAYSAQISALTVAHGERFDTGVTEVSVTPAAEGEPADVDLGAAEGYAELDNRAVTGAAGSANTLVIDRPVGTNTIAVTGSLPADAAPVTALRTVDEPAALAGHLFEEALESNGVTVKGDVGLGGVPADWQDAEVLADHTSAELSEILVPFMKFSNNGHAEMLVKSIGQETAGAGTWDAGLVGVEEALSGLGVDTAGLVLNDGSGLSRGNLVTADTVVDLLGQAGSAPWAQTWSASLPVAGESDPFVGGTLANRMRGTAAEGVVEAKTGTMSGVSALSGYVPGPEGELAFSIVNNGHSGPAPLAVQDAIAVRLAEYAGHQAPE
Experimental: The process is the same as in example 3, except that, after the first incubation, 120 μl of an aqueous solution containing 5 mg/ml of [(N-phenylacetyl-D-alanyl)thio]-acetic acid are added.

enzyme R39 [2] = molecular target: T2, enzyme R39 (Actinomadura sp. R39, UniProt P39045); assay: Hydrolysis of thioester-type substrate by enzyme R39 and its activation by D-amino acids; type: biochemical; details: for activating effect on the thioester hydrolysis reaction by enzyme R39: thioester-type substrate of formula I; for activity of enzyme R39 on the substrate: one unit hydrolyzes 1 micromole of substrate per minute at 47° C.
T2 sequence (P39045 50-515): as above
Excerpt: In other words, in the presence of this activator, the rate of hydrolysis of the substrate by enzyme R39 is 40 times higher.

enzyme R39 [3] = molecular target: T2, enzyme R39; details: about 20 μl milk, 3 picomoles enzyme R39, cited from earlier work
[4] = system: cells or cell parts of Bacillus stearothermiphilus; details: enzyme-tagged antibiotic, visual colorimetric method; cited from earlier work
[5] = molecular target: T1, enzyme R39 (soluble D-alanyl-D-alanine carboxypeptidase produced by Actinomadura R39); assay: Enzymatic determination of cephapirin in milk (Example 6); type: biochemical
Experimental: The process is the same as in example 3, but the samples of 3 ml of milk contain known concentrations of cephapirin.

Compound: C[C@@H](NC(=O)Cc1ccccc1)C(=O)SCC(=O)O [[(N-phenylacetyl-D-alanyl)thio]-acetic acid]
- process carried out with this compound as substrate [1]: successfully

Compound: C[C@@H](N)C(=O)O [D-alanine]
- activating effect on the thioester hydrolysis reaction by enzyme R39 (enzyme R39 [2]): best activators

Compound: N[C@H](Cc1c[nH]cn1)C(=O)O [D-histidine]
- activating effect on the thioester hydrolysis reaction by enzyme R39 (enzyme R39 [2]): best activators

Compound: NCC(=O)O [glycine]
- activating effect on the thioester hydrolysis reaction by enzyme R39 (enzyme R39 [2]): activating effect

Compound: N[C@H](Cc1ccccc1)C(=O)O [D-phenylalanine]
- activating effect on the thioester hydrolysis reaction by enzyme R39 (enzyme R39 [2]): best activators

Compound: N=C(N)NCCC[C@@H](N)C(=O)O [D-arginine]
- activating effect on the thioester hydrolysis reaction by enzyme R39 (enzyme R39 [2]): best activators

Compound: penicillin
- penicillin concentration in milk quantitatively determined (spectrophotometer) (enzyme R39 [3]): 0.02 I.U./ml
- penicillin concentration in milk qualitatively determined by the visual method (enzyme R39 [3]; in less than one hour): more than 0.09 I.U./ml
- penicillin concentration threshold detected in milk [4]: 0.05 IU/ml

Compound: CC(C)[C@@H](N)C(=O)O [D-valine]
- activating effect on the thioester hydrolysis reaction by enzyme R39 (enzyme R39 [2]): best activators

Compound: CC[C@@H](N)C(=O)O [D-2-aminobutyric acid]
- activating effect on the thioester hydrolysis reaction by enzyme R39 (enzyme R39 [2]): best activators

Compound: N[C@H](CO)C(=O)O [D-serine]
- activating effect on the thioester hydrolysis reaction by enzyme R39 (enzyme R39 [2]): best activators

Compound: CSCC[C@@H](N)C(=O)O [D-methionine]
- activating effect on the thioester hydrolysis reaction by enzyme R39 (enzyme R39 [2]): best activators

Compound: C[C@@H](NC(=O)c1ccccc1)C(=O)SCC(=O)O [[(N-benzoyl-D-alanyl)thio]-acetic acid]
- performance as substrate for enzyme R39 (enzyme R39 [2]; among thioesters of formula I): best results
- activity of enzyme R39 on the substrate (enzyme R39 [2]; in the absence of D-alanine): 8 units per milligram of enzyme
- activity of enzyme R39 on the substrate (enzyme R39 [2]; in the presence of D-alanine): 320 units per milligram of enzyme

Compound: N[C@H](Cc1c[nH]c2ccccc12)C(=O)O [D-tryptophan]
- activating effect on the thioester hydrolysis reaction by enzyme R39 (enzyme R39 [2]): best activators

Compound: CC(=O)OCC1=C(C(=O)O)N2C(=O)[C@@H](NC(=O)CSc3ccncc3)[C@H]2SC1 [cephapirin]
- Coloration ([5]; cephapirin 0.002 μg/ml in 3 ml milk): medium yellow
- Coloration ([5]; cephapirin 0.003 μg/ml in 3 ml milk): pale yellow
- Coloration ([5]; cephapirin 0.004 μg/ml in 3 ml milk): white
- Coloration ([5]; cephapirin 0.006 μg/ml in 3 ml milk): white
- cephapirin concentration in milk detected visually ([5]; in 15 minutes time): 0.004 µg/mL
